From patent US6602487B1, “Methods and tests for producing and for inhibiting coronary artery vasospasms” (Dimera Incorporated, priority 1997, dated 2003)
Several values for one entry are separate records, joined by “and”; a condition that tells them apart may be missing. Identical values can stand only once.

System: coronary arteries
Assay: Drug-induced (S+U) coronary vasospasm in ovariectomized monkeys with E2 plus P or MPA implants
Assay type: in vivo, rhesus monkeys (Macaca mulatta)
Experimental: Twelve rhesus monkeys (Macaca mulatta), aged 8 to 16 years and with weights of 5-7 kg, were ovariectomized at least 3 months prior to beginning of the study and selected randomly for one of two treatments. After documenting the lack of cardiovascular disease or previous exposure to atherogenic diet and after a normal physical examination (including blood chemistry), monkeys received subdermal sylastic implants containing 200 mg of E2. Two weeks later, sylastic implants containing either 400 mg of P or 400 mg of MPA were additionally implanted. All steroids were purchased from Steraloids (Wilton, N.H.). Both estrogen and progestin implants, providing sustained release steroids, remained in place through the catheterization study 6 weeks after beginning the study. Venous blood sample (5 ml) were collected just prior to beginning the study at weekly intervals for measurements of serum levels of E2, P, and MPA. Target levels of 80-160 pg/ml for E2, 4000-8000 pg/ml for P, and 400-800 pg/ml for MPA were based on levels that are effective by reproductive system indices in women and monkeys. Levels were measured in blood serum at catheterization by specific radio-immunoassays.
Angiography was carried out under isoflurane (0.75-1.25%) general anesthesia with 70% O2 and 30% N2O, and body temperature supported with a heating pad. After ketamine sedation (10 mg/kg) and endotracheal tube placement, both femoral arteries were cannulated for simultaneous measurement of systemic blood pressure and coronary catheterization. Intravenous anticoagulation with 1000 units of heparin and fluid replacement with 75-150 ml of lactated Ringer's solution, and if needed 10-50 ml of dextran, to reach a minimum control diastolic blood pressure of 60 mm Hg.
Coronary arteries (left anterior descending or left circumflex) of the monkeys were catheterized and agents injected as described above in Example 1.
Statistical analysis was carried out by Student's t-test (non-paired) or Chi-square, with the p<0.05 level accepted as significant.
All monkeys were treated with estradiol 17β via sylastic implants for the entire treatment period. P or MPA was added during the last 2 weeks as a second sylastic implant, to simulate the luteal phase (P) or hormone replacement therapy (MPA). All steroid implants were left in place, including during angiography. Steroid measurements were made by RIA on serum samples taken just before angiography. Indicates significant differences between P and MPA at p 0.05 (N=6 for each group).

[1] = minimum, 5-20 minutes after IC S + U

Q: `CC(=O)[C@H]1CC[C@H]2[C@@H]3CCC4=CC(=O)CC[C@]4(C)[C@H]3CC[C@]12C` [P, progesterone] was tested. Which “diameter in dilator response to low dose ACh” value (0.18 μg ACh IC) did it give?
A: 1.20±0.25 mm

Q: And the “Vasospasms (incidence)” value (S+U IC challenges, E2 implant plus P or MPA implant, N=6 per group)?
A: 0 of 6 and 0/6

Q: What about the “reduction of minimum (φ) from controls after S+U” value (S+U stimulation) of the same molecule?
A: 67%

Q: What about the “Control DBP in mm Hg” value (before S + U) of the same molecule?
A: 60 ± 5 mm Hg

Q: And the “Control Heart rate in bpm” value (before S + U)?
A: 130 ± 24 bpm

Q: And the “S + U (φ) minimum” value (minimum diameter 3 to 5 minutes after IC S + U)?
A: 0.37±0.02 mm

Q: What about the “S + U stim DBP in min Hg” value [1] of the same molecule?
A: 30 ± 12 min Hg

Q: What about the “S + U stim SBP in mm Hg” value [1] of the same molecule?
A: 51 ± 18 mm Hg

Q: And the “S + U stim heart rate in bpm” value [1]?
A: 66 ± 34 bpm

Q: What about the “Control (φ) in mm” value (proximal LAD or left circumflex diameter under control conditions, E2+P or E2+MPA group) of the same molecule?
A: 1.14±0.21 mm
